From patent publication US20150045551A1, “FUSED AZOLE DERIVATIVE” (TAISHO PHARMACEUTICAL CO., LTD, priority 2012, published 2015) come the findings set out here.

pIC50: −log10 of the molar value. Counter-ions that a name gives are not always drawn.

In the experiment the target is T1, Human V1b receptor (Homo sapiens, UniProt P47901).
T1 sequence (P47901 1-424): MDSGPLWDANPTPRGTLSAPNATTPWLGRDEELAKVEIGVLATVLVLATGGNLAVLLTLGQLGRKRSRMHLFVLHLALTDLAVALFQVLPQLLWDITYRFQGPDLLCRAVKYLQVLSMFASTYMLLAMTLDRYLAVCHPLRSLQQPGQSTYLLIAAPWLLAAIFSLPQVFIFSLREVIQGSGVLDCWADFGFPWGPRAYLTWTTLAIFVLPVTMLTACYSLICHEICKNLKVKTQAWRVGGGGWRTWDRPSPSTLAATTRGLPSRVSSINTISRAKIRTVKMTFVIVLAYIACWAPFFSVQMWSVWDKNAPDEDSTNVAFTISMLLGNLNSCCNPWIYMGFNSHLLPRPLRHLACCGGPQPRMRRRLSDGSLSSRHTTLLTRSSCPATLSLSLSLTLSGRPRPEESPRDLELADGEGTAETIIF
As to the kind of experiment: Binding test for V1b receptor ([3H]AVP displacement, crude membrane preparation). The conditions noted are these: [3H]AVP 0.4 to 1 nmol/L; membranes of 293FT cells transiently expressing human V1b receptor; room temperature, 60 minutes. On the set-up: expressed in transfected cells; host or cells: 293FT cells (transient expression). The protocol: Human V1b receptor was transiently expressed in 293FT cells, which were then recovered and homogenated in a 15 mmol/L tris-hydrochloric acid buffer (pH 7.4 and containing 2 mmol/L magnesium chloride, 0.3 mmol/L ethylenediaminetetracetic acid, and 1 mmol/L glycol ether diaminetetraacetic acid). The resulting homogenate was centrifuged at 50,000×g at 4 ° C. for 20 minutes. The precipitate was resuspended in a 75 mmol/L tris-hydrochloric acid buffer (pH 7.4 and containing 12.5 mmol/L magnesium chloride, 0.3 mmol/L ethylenediaminetetracetic acid, 1 mmol/L glycol ether diaminetetraacetic acid, and 250 mmol/L sucrose) to give a crude membrane preparation, which was stored at −80° C. until the binding test was initiated. In the binding test, the crude membrane preparation was diluted with a 50 mmol/L tris-hydrochloric acid buffer (pH 7.4 and containing 10 mmol/L magnesium chloride and 0.1% bovine serum albumin) and mixed with each test compound and [^3H]AVP (final concentration: 0.4 to 1 nmol/L), followed by incubation at room temperature for 60 minutes. The test compound was serially diluted with DMSO so that it would have final concentrations of 0.01 nmol/L to […] at the time of mixing. After the incubation, the mixture was suction filtered through a GF/C filter that was preliminarily impregnated with 0.3% polyethyleneimine. The GF/C filter was dried and after adding a scintillator, the residual radioactivity on the filter was measured using TopCount (PerkinElmer Inc.). The radioactivity in the presence of unlabeled AVP at 10 μmol/L was defined as 0%, and the radioactivity in the absence of unlabeled AVP was defined as 100%. A dose-response curve was plotted from radioactivities in the presence of a test compound at various concentrations, and the 50% inhibitory concentration (IC50 value) of the test compound was calculated.
In the case of `CC(C)NC(=O)Cn1c(-c2cccc(Cl)c2)nc2cc(OCCCN3CCOCC3)ccc21` [Example A-2, 2-{2-(3-chlorophenyl)-5-[3-(morpholin-4-yl)propoxy]-1H-benzimidazol-1-yl}-N-isopropyl acetamide], the negative-log IC50 (pIC50) (as a rule, the negative decadic logarithm of the IC50, by convention in mol/L) is 7.85.
Molecule `CC(C)NC(=O)Cn1c(-c2cccc(Cl)c2)nc2cc(OCCCN3CC4(COC4)C3)ccc21` [Example A-3, 2-{2-(3-chlorophenyl)-5-[3-(2-oxa-6-azaspiro[3.3]hept-6-yl)propoxy]-1H-benzimidazol-1-yl}-N-isopropyl acetamide] showed a negative-log IC50 (pIC50) of 8.08.
Molecule `CC(C)NC(=O)Cn1c(-c2cccc(Cl)c2)nc2cc(OCCCN3[C@@H]4CC[C@H]3COC4)ccc21` [Example A-4, 2-[2-(3-chlorophenyl)-5-{3-[(1R,5S)-3-oxa-8-azabicyclo[3.2.1]oct-8-yl]propoxy}-1H-benzimidazol-1-yl]-N-isopropyl acetamide] had a negative logarithm of the IC50 (pIC50) of 8.30. Against the preceding molecule, the pIC50 is 0.22 log units higher.
With `COc1cc(-c2nc3cc(OCCCN4CC5(COC5)C4)ccc3n2CC(=O)NC(C)C)ccc1F` [Example A-7, 2-{2-(4-fluoro-3-methoxyphenyl)-5-[3-(2-oxa-6-azaspiro[3.3]hept-6-yl)propoxy]-1H-benzimidazol-1-yl}-N-isopropyl acetamide], the negative-log IC50 (pIC50) is 8.32.
Take `COc1cc(-c2nc3cc(OCCCN4[C@@H]5CC[C@H]4COC5)ccc3n2CC(=O)NC(C)C)ccc1F` [Example A-8, 2-[2-(4-fluoro-3-methoxyphenyl)-5-{3-[(1R,5S)-3-oxa-8-azabicyclo[3.2.1]oct-8-yl]propoxy}-1H-benzimidazol-1-yl]-N-isopropyl acetamide]: the pIC50 is 8.60.
For the molecule `COc1cc(-c2nc3ccc(-c4cc(Cl)cc(CN(C)C)c4)cc3n2CC(=O)NC(C)C)ccc1F` [Example A-10, 2-[6-{3-chloro-5-[(dimethylamino)methyl]phenyl}-2-(4-fluoro-3-methoxyphenyl)-1H-benzimidazol-1-yl]-N-isopropyl acetamide], the negative-log IC50 (pIC50) was 6.85. Compared with the last molecule, the pIC50 is 1.75 log units lower.
Regarding `CC(C)NC(=O)Cn1c(-c2ccc(F)c(Cl)c2)nc2cc(OCCCN3CCCCC3)ccc21` [Example A-12, 2-{2-(3-chloro-4-fluorophenyl)-5-[3-(piperidin-1-yl)propoxy]-1H-benzimidazol-1-yl}-N-isopropyl acetamide hydrochloride], the pIC50 was 8.12.
Regarding `CC(C)NC(=O)Cn1c(-c2ccc(F)c(Cl)c2)nc2cc(OCCCN3CC4(COC4)C3)ccc21` [Example A-15, 2-{2-(3-chloro-4-fluorophenyl)-5-[3-(2-oxa-6-azaspiro[3.3]hept-6-yl)propoxy]-1H-benzimidazol-1-yl}-N-isopropyl acetamide], the pIC50 was 8.42. This pIC50 lies 0.30 log units higher than the previous one.
In turn, `CC(C)NC(=O)Cn1c(-c2ccc(F)c(Cl)c2)nc2cc(OCCCN3[C@@H]4CC[C@H]3COC4)ccc21` [Example A-16, 2-[2-(3-chloro-4-fluorophenyl)-5-{3-[(1R,5S)-3-oxa-8-azabicyclo[3.2.1]oct-8-yl]propoxy}-1H-benzimidazol-1-yl]-N-isopropyl acetamide] had a negative-log IC50 (pIC50) of 8.77. Compared with the last molecule, the pIC50 is 0.35 log units higher.
Take `CC(C)NC(=O)Cn1c(-c2ccc(F)c(Cl)c2)nc2cc(OCCCCN3CCCCC3)ccc21` [Example A-17, 2-{2-(3-chloro-4-fluorophenyl)-5-[4-(piperidin-1-yl)butoxy]-1H-benzimidazol-1-yl}-N-isopropyl acetamide]: the negative-log IC50 (pIC50) is 6.75.
In turn, `COc1cccc(-c2nc3cc(OCCCN4CCOCC4)ccc3n2CC(=O)NC(C)C)n1` [Example A-18, N-isopropyl-2-{2-(6-methoxypyridin-2-yl)-5-[3-(morpholin-4-yl)propoxy]-1H-benzimidazol-1-yl}acetamide] had a pIC50 of 7.08.
Take `COc1cc(-c2nc3cc(N4CCCN(C)CC4)ccc3n2CC(=O)NC(C)(C)C)ccc1F` [Example A-19, N-tert-butyl-2-[2-(4-fluoro-3-methoxyphenyl)-5-(4-methyl-1,4-diazepan-1-yl)-1H-benzimidazol-1-yl]acetamide]: the pIC50 was 8.47.
Then `COc1cc(-c2nc3cc(N4CCCN(C(C)C)CC4)ccc3n2CC(=O)NC(C)(C)C)ccc1F` [Example A-20, N-tert-butyl-2-[2-(4-fluoro-3-methoxyphenyl)-5-(4-isopropyl-1,4-diazepan-1-yl)-1H-benzimidazol-1-yl]acetamide], with 8.07.
In turn, `COc1cc(-c2nc3cc(N4CCC(N5CCCC5)CC4)ccc3n2CC(=O)NC(C)(C)C)ccc1F` [Example A-21, N-tert-butyl-2-{2-(4-fluoro-3-methoxyphenyl)-5-[4-(pyrrolidin-1-yl)piperidin-1-yl]-1H-benzimidazol-1-yl}acetamide] gave a negative logarithm of the IC50 (pIC50) of 8.96.
`CC(C)NC(=O)Cn1c(-c2ccc(F)c(Cl)c2)nc2cc(N3CCCN(C)CC3)ccc21` [Example A-22, 2-[2-(3-chloro-4-fluorophenyl)-5-(4-methyl-1,4-diazepan-1-yl)-1H-benzimidazol-1-yl]-N-isopropyl acetamide] showed a negative-log IC50 (pIC50) of 7.81. Against the preceding molecule, the pIC50 is 1.15 log units lower.
For the molecule `CN1CCCN(c2ccc3c(c2)nc(-c2ccc(F)c(Cl)c2)n3CC(=O)NC(C)(C)C)CC1` [Example A-23, N-tert-butyl-2-[2-(3-chloro-4-fluorophenyl)-5-(4-methyl-1,4-diazepan-1-yl)-1H-benzimidazol-1-yl]acetamide], the pIC50 was 8.51. Compared with the last molecule, the pIC50 is 0.70 log units higher.
Molecule `CC(C)NC(=O)Cn1c(-c2cccc(Cl)c2)cc2cc(OCCCN3CCOCC3)ccc21` [Example B-2, 2-{2-(3-chlorophenyl)-5-[3-(morpholin-4-yl)propoxy]-1H-indol-1-yl}-N-isopropyl acetamide] gave a pIC50 of 8.19. This pIC50 lies 0.32 log units lower than the previous one.
`CC(C)NC(=O)Cn1c(-c2cccc(Cl)c2)cc2cc(OC3CCN(C4CC4)CC3)ccc21` [Example B-3, 2-{2-(3-chlorophenyl)-5-[(1-cyclopropylpiperidin-4-yl)oxy]-1H-indol-1-yl}-N-isopropyl acetamide] showed a negative-log IC50 (pIC50) of 7.98. This pIC50 lies 0.21 log units lower than the previous one.
`CC(C)NC(=O)Cn1c(-c2cccc(Cl)c2)cc2cc(OCCCN3CCC(O)CC3)ccc21` [Example B-6, 2-{2-(3-chlorophenyl)-5-[3-(4-hydroxypiperidin-1-yl)propoxy]-1H-indol-1-yl}-N-isopropyl acetamide]: the negative-log IC50 (pIC50) was 7.74.
`CC(C)NC(=O)Cn1c(-c2cccc(Cl)c2)cc2cc(OCCCN3CCCC(O)C3)ccc21` (centres unmarked) [Example B-7, 2-{2-(3-chlorophenyl)-5-[3-(3-hydroxypiperidin-1-yl)propoxy]-1H-indol-1-yl}-N-isopropyl acetamide] showed a pIC50 of 7.13. Compared with the last molecule, the pIC50 is 0.61 log units lower.
In turn, `CC(C)NC(=O)Cn1c(-c2cccc(Cl)c2)cc2cc(OCCCN3CCC(O)C3)ccc21` (centres unmarked) [Example B-8, 2-{2-(3-chlorophenyl)-5-[3-(3-hydroxypyrrolidin-1-yl)propoxy]-1H-indol-1-yl}-N-isopropyl acetamide] showed a negative-log IC50 (pIC50) of 7.28.
For `CC(C)NC(=O)Cn1c(-c2cccc(Cl)c2)cc2cc(OCCCN3CCC4(CC3)COC4)ccc21` [Example B-10, 2-{2-(3-chlorophenyl)-5-[3-(2-oxa-7-azaspiro[3.5]non-7-yl)propoxy]-1H-indol-1-yl}-N-isopropyl acetamide] the value was 7.69.
For `COc1cc(-c2cc3cc(OCCCN4CCCCC4)ccc3n2CC(=O)NC(C)C)ccc1F` [Example B-11, 2-{2-(4-fluoro-3-methoxyphenyl)-5-[3-(piperidin-1-yl)propoxy]-1H-indol-1-yl}-N-isopropyl acetamide] the value was 7.28.
